Source: the supplement of paper PMC10307832

How the values were obtained:
Test in all cases: relative viability (nuclei count vs DMSO), 5 days (fraction); higher = more cells survive
[1] = compound: CC[C@@H]1C(=O)N(C)c2cnc(Nc3ccc(C(=O)NC4CCN(C)CC4)cc3OC)nc2N1C1CCCC1 [BI-2536] + Cc1nc(NC(=O)N2CCC[C@H]2C(N)=O)sc1-c1ccnc(C(C)(C)C(F)(F)F)c1 [Alpelisib] (partner 2 µM)
Method in brief: (§1)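 Nuclei were stained with Hoechst during a one-step fixation (final 0.05% Triton X-100, 1% formaldehyde, 1 ug/ml Hoechst) carried out 5 days after dosing, then counted on 4× images. The cells, lung cancer lines in 1536-well plates, had been dosed by pin tool the day after seeding with one drug alone or a fixed anchor-drug dose plus five library-drug doses (not always all listed) in √10 steps. Relative viability is the nuclei count in treated wells divided by that in vehicle wells, and each value is the median of duplicate plates.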

[2] = compound: CC[C@@H]1C(=O)N(C)c2cnc(Nc3ccc(C(=O)NC4CCN(C)CC4)cc3OC)nc2N1C1CCCC1 [BI-2536] + Cc1cc(Nc2cc(N3CCN(C)CC3)nc(Sc3ccc(NC(=O)C4CC4)cc3)n2)n[nH]1 [Tozasertib] (partner 0.1 µM)
Method in brief: as §1

[3] = compound: CC[C@@H]1C(=O)N(C)c2cnc(Nc3ccc(C(=O)NC4CCN(C)CC4)cc3OC)nc2N1C1CCCC1 [BI-2536] + N=C(N)NC(=N)NCCc1ccccc1 [Phenformin] (partner 250 µM)
Method in brief: as §1

[4] = compound: CC[C@@H]1C(=O)N(C)c2cnc(Nc3ccc(C(=O)NC4CCN(C)CC4)cc3OC)nc2N1C1CCCC1 [BI-2536] + CC(=O)c1c(C)c2cnc(Nc3ccc(N4CCNCC4)cn3)nc2n(C2CCCC2)c1=O [Palbociclib] (partner 0.5 µM)
Method in brief: as §1

Cell Line | relative viability ([1]; first compound 0.01 µM) | relative viability ([1]; first compound 0.03162 µM) | relative viability ([1]; first compound 0.1 µM) | relative viability ([1]; first compound 0.3162 µM) | relative viability ([1]; first compound 1 µM) | relative viability ([2]; first compound 0.01 µM) | relative viability ([2]; first compound 0.03162 µM) | relative viability ([2]; first compound 0.1 µM) | relative viability ([2]; first compound 0.3162 µM) | relative viability ([2]; first compound 1 µM) | relative viability ([3]; first compound 0.01 µM) | relative viability ([3]; first compound 0.03162 µM) | relative viability ([3]; first compound 0.1 µM) | relative viability ([3]; first compound 0.3162 µM) | relative viability ([3]; first compound 1 µM) | relative viability ([4]; first compound 0.01 µM) | relative viability ([4]; first compound 0.03162 µM) | relative viability ([4]; first compound 0.1 µM) | relative viability ([4]; first compound 0.3162 µM) | relative viability ([4]; first compound 1 µM)
NCI-H1703 | 0.347 | 0.247 | 0.279 | 0.0951 | 0.123 |  |  |  |  |  |  |  |  |  |  |  |  |  |  | 
NCI-H1437 | 0.981 | 0.742 | 0.422 | 0.113 | 0.0916 | 0.465 | 0.432 | 0.389 | 0.333 | 0.237 | 0.289 | 0.23 | 0.145 | 0.143 | 0.154 | 0.332 | 0.281 | 0.273 | 0.159 | 0.197
SK-LU-1 | 1.03 | 0.507 | 0.317 | 0.28 | 0.244 | 0.323 | 0.317 | 0.323 | 0.218 | 0.176 | 0.577 | 0.321 | 0.209 | 0.12 | 0.151 | 0.328 | 0.419 | 0.323 | 0.202 | 0.221
H3255 | 0.691 | 0.492 | 0.37 | 0.252 | 0.241 | 0.569 | 0.507 | 0.586 | 0.196 | 0.224 | 0.3 | 0.318 | 0.306 | 0.268 | 0.329 | 0.341 | 0.299 | 0.314 | 0.248 | 0.259
Calu-6 | 0.985 | 0.682 | 0.285 | 0.0989 | 0.126 |  |  |  |  |  |  |  |  |  |  |  |  |  |  | 
NCI-H1792 | 0.786 | 0.804 | 0.643 | 0.34 | 0.134 |  |  |  |  |  | 0.451 | 0.49 | 0.301 | 0.0773 | 0.0991 | 0.72 | 0.706 | 0.76 | 0.349 | 0.215
SK-MES-1 | 0.869 | 0.957 | 0.786 | 0.147 | 0.186 | 0.956 | 0.801 | 0.191 | 0.151 | 0.172 | 0.704 | 0.626 | 0.209 | 0.162 | 0.167 | 0.345 | 0.301 | 0.187 | 0.222 | 0.208
NCI-H1650 |  |  |  |  |  | 0.403 | 0.283 | 0.252 | 0.179 | 0.196 | 0.425 | 0.3 | 0.166 | 0.141 | 0.134 | 0.382 | 0.282 | 0.188 | 0.129 | 0.145
NCI-H2087 | 1.11 | 1.18 | 1.03 | 0.15 | 0.132 | 0.25 | 0.214 | 0.155 | 0.119 | 0.12 | 0.477 | 0.503 | 0.173 | 0.0945 | 0.102 | 0.225 | 0.189 | 0.203 | 0.0781 | 0.118
HCC-366 | 0.469 | 0.344 | 0.273 | 0.0093 | 0.0141 | 0.119 | 0.169 | 0.115 | 0.038 | 0.0412 | 0.67 | 0.605 | 0.256 | 0.0215 | 0.0251 | 0.364 | 0.389 | 0.225 | 0.0306 | 0.0265
